How the values were obtained:
[1] = system: AI-2; details: Niu C. et al., Lett. Appl. Microbiol. 2006; cited from earlier work
[2] = system: Vibrio harveyi BB170 strain; details: Keersmaecker et al.; reporter strain of Vibrio harveyi; activity detected at considerably higher concentration than DPD; cited from earlier work
[3] = system: Vibrio harveyi BB170 strain; test: AI-2 reporter bioassay: photogenesis intensity of Vibrio harveyi BB170 reporter bacterium; format: cell-based
Protocol: An HMF authentic preparation (SIGMA) and a DPD authentic preparation (examination of synthesis was requested to OMM Scientific, and a product synthesized by the company was purchased) were added at a final concentration of 0.001 to 1000 μM to a Vibrio harveyi BB170 strain (purchased from ATCC, cultured under aerobic conditions at 30° C. in a marine medium (manufactured by Difco)) used as an autoinducer-2 (AI-2) reporter bacterium. The photogenesis intensity as the index of the AI-2 activity was measured in the same way as in Keersmaecker S. C. J. et al., J. Biol. Chem., 280(20), pp. 19563-19568, 2005. Namely, the Vibrio harveyi BB170 strain was diluted to 5000-fold as a final concentration with an AB medium (for example, see Bassler et al., Mol. Microbiol., 9, pp. 773-786, 1993), and the reporter bacterium liquid and the authentic preparations were mixed at a volume ratio of 9:1, followed by culturing with aerobic shaking at 30° C. Four hours later, the photogenesis intensity was measured using a chemiluminescence analyzer (Berthold, Mitharas LB940 (product name), detecting chemiluminescence). FIG. 1 illustrates a correlation between the concentrations of the HMF authentic preparation and DPD authentic preparation, and the photogenesis intensity. The HMF authentic preparation and DPD authentic preparation were prepared in glass containers. […]

| Compound | AI-2-inhibiting activity [1] | autoinducer-2 activity [2] | HMF concentration detectable in the bioassay ([3]; calibration curve prepared using glass containers) [µM] | HMF-induced photogenesis intensity of the reporter bacterium compared with autoinducer-2 ([3]; reporter bacterium light emission) |
| --- | --- | --- | --- | --- |
| O=CC=Cc1ccccc1 [Cinnamaldehyde, 3-phenyl-2-propenal] | having an AI-2-inhibiting activity |  |  |  |
| CC1=C(O)C(=O)CO1 [HMF, 4-hydroxy-5-methyl-3(2H)-furanone] |  | has an autoinducer-2 activity | ≤ 0.1 | lower than the photogenesis intensity induced by autoinducer-2 |
